Data from paper PMC9940851, “Seleno Containing Compounds as Potent and Selective Antifungal Agents” (ACS Infectious Diseases, 2022).
In brackets after ≈: the same amount, converted by molar mass.

Columns and labels:
MpaCA = target: T1, MpaCA (Malassezia pachydermatis, UniProt A0A0M8MPA4); assay: stopped-flow CO2 hydrase assay; format: biochemical
T1 construct: gene Malapachy_3798
T1 sequence (A0A0M8MPA4 1-242): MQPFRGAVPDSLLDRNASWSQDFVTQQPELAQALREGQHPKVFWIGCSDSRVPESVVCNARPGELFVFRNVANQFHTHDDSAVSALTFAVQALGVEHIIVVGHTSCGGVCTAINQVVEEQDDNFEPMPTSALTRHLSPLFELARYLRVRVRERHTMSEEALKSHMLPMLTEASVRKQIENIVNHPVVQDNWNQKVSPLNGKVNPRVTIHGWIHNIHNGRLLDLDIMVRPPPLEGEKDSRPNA

MgCA [1] = target: T2, MgCA (Malassezia globosa, UniProt A8Q1N3); assay: stopped-flow CO2 hydrase assay; format: biochemical
T2 construct: gene MGL_1814
T2 sequence (A8Q1N3 1-241): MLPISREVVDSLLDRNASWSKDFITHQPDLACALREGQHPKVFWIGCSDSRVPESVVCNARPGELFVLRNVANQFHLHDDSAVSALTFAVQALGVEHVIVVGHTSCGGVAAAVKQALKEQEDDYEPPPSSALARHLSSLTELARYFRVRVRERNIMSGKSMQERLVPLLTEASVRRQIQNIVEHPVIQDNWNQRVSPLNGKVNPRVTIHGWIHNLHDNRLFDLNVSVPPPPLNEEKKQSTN
Outline: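 Stopped-flow recording over 10–100 s followed CO2 hydration (1.7–17 mM CO2) in 20 mM Hepes pH 7.4 plus 20 mM Na2SO4, using 0.2 mM phenol red at 557 nm, after recombinant carbonic anhydrase (5–12 nM) had been preincubated with inhibitor for 15 min at room temperature. Initial rates, corrected for uncatalysed rates, came from at least six traces, and at least three determinations were averaged. Ki was calculated by nonlinear least-squares fitting with the Cheng-Prusoff equation.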

C. albicans = assay: microbe, parasite or virus in culture; design: broth microdilution MIC, M. pachydermatis and Candida, 35 °C; settings: Candida albicans
Procedure: (§1) Inoculum preparations for antifungal assays were performed following the CLSI guidelines for antifungal susceptibility testing of yeasts.[31] Antifungal activity was evaluated on unicellular yeasts Candida albicans ATCC 10231, Candida glabrata ATCC 90030 (DSMZ 11226), Malassezia pachydermatis CDC 16334 (DSMZ 6172), Malassezia globosa ATCC MYA 4612, and Malassezia furfur ATCC 14521. All the fungal strains were stored at −80 °C in cryovials. Then Candida spp. and Malassezia pachydermatis were reactivated in RPMI 1640 broth for 24–48 h at 35 °C. The so obtained fresh cultures were streaked onto Sabouraud dextrose agar and incubated for 24–48 h at 35 °C. Malassezia globosa and furfur were reactivated in modified RPMI 1640 broth[32] for 24–48 h at 35 °C (M. furfur) and 33 °C (M. globosa), and then the cultures were streaked onto Leeming and Notman agar (MLNA) and incubated for 48–72 h at 35 °C for M. furfur and at 33 °C for M. globosa. The fungal inoculum for the testing was prepared by suspending in phosphate buffer (PB) 10 mM pH 7 4–5 colonies of about 1 mm diameter. The fungal suspension was then adjusted to a final optical density of 0.5 McFarland standard (1–5 × 10^6 cells/mL). The compound solutions were tested in a range of concentrations from 0.01 μg/mL to 256 μg/mL, and 50 μL were then added in 96 wells microtiter plates with 50 μL of fungal inoculum and incubated for 24–48 h at 35 °C. Growth and sterility controls were performed. […] Compounds 3a, 3c, 5b, 7a–d, 9c, 11e, 11i, and 14a,b were selected as representatives of the chemical moieties synthesized prior to their screen on yeasts of biomedical relevance such as M. pachydermatis DSMZ 6172, C. albicans ATCC 10231, and C. glabrata ATCC 90030 (DSMZ 11226) strains. The clinical used drugs Ketoconazole, SeS2, and Amphotericin B were included as references (Table 1).

C. glabrata DSMZ 11226 = system: T3, C. glabrata DSMZ 11226; assay: microbe, parasite or virus in culture; design: broth microdilution MIC, M. pachydermatis and Candida, 35 °C; settings: Nakaseomyces glabratus, DSMZ11226
T3 construct: DSMZ 11226 (ATCC 90030)
Procedure: as §1

[2] = system: T4, M. pachydermatis DSMZ 6172; assay: microbe, parasite or virus in culture; design: broth microdilution MIC, M. pachydermatis and Candida, 35 °C; settings: Malassezia pachydermatis, DSMZ6172
T4 construct: DSMZ 6172 (CDC 16334)
Procedure: as §1

ATCC M. furfur 14521 = system: T5, ATCC M. furfur 14521; assay: microbe, parasite or virus in culture; settings: Malassezia furfur
T5 construct: ATCC 14521
Procedure: as §1

M. globosa ATCC MYA 4612 = system: T6, M. globosa ATCC MYA 4612; assay: microbe, parasite or virus in culture; settings: Malassezia globosa
T6 construct: ATCC MYA 4612
Procedure: as §1

MgCA [3] = target: T2, MgCA; assay: biochemical; design: stopped-flow CO2 hydration assay, phenol red absorbance at 557 nm, 15 min preincubation, Cheng-Prusoff KI
Procedure: Enzyme concentrations ranged between 5 and 12 nM. […] The presence of the sulfonamide moiety (i.e., either primary/secondary) within our scaffolds prompted us to investigate whether the compounds listed in this study were endowed with modulation features against the enzymatic metalloenzyme carbonic anhydrases (CAs, EC 4.2.1.1) expressed in Malassezia spp. of interest such as M. pachydermatis (MpaCA), M. globosa (MgCA), and M. restricta (MreCA). […] The obtained activities in Table 3 were all reported as KI values.

| SMILES | Ki (MpaCA) [µM] | Ki (MgCA [1]) [µM] | MIC (C. albicans) [µg/mL] | MIC (C. glabrata DSMZ 11226) [µg/mL] | MIC [2] [µg/mL] | MIC (ATCC M. furfur 14521) [µg/mL] | MIC (M. globosa ATCC MYA 4612) [µg/mL] | Ki (MgCA [3]) [µM] |
| --- | --- | --- | --- | --- | --- | --- | --- | --- |
| CC(=O)Oc1ccccc1C(=O)NC(=[Se])Nc1cc(S(N)(=O)=O)ccc1O [11e] | 33.8 | 4.73 | 256 (≈ 561 µM) | 256 (≈ 561 µM) | 0.5 (≈ 1.1 µM) | 0.75 ± 0.67 (≈ 1.64 µM) | 6.7 ± 2.1 (≈ 14.7 µM) | – |
| NS(=O)(=O)c1ccc(O)c(NC(=[Se])NC(=O)c2cc(Br)cc(OC(F)(F)F)c2)c1 [11i] | 12.7 | – | 64 (≈ 114 µM) | 32 (≈ 57 µM) | 0.5 (≈ 0.891 µM) | 5 ± 2.45 (≈ 8.91 µM) | 64 (≈ 114 µM) | 6.25 |
| Cc1cccc(C(=O)NC(=[Se])Nc2cc(S(N)(=O)=O)ccc2O)c1 [11j] | 14.8 | – | – | – | 0.5 (≈ 1.21 µM) | 16 ± 8.76 (≈ 38.8 µM) | 128 (≈ 310 µM) | 5.64 |
| NS(=O)(=O)c1ccc(NC(=O)Nc2ccccc2F)cc1 [14a] | 0.845 | – | > 256 | > 256 | > 256 | > 256 | > 256 | 6.74 |
| NS(=O)(=O)c1ccc(NC(=S)Nc2ccccc2F)cc1 [14b] | 0.488 | – | > 256 | > 256 | > 256 | > 256 | > 256 | 5.49 |
| O=C(Nc1ccccc1)Nc1ccccc1F [14c] | > 10 | – | – | – | > 256 | > 256 | > 256 | > 10 |
| Fc1ccccc1NC(=S)Nc1ccccc1 [14d] | > 10 | – | – | – | > 256 | 128 (≈ 520 µM) | > 256 | > 10 |
| O=C(NC(=[Se])Nc1ccccc1)c1ccccc1 [16a] | > 10 | – | – | – | 0.8 ± 0.29 (≈ 2.64 µM) | 0.8 ± 0.6 (≈ 2.64 µM) | 29.3 ± 18.7 (≈ 96.6 µM) | > 10 |
| O=C(NC(=[Se])Nc1ccccc1)c1cc(Br)cc(OC(F)(F)F)c1 [16b] | > 10 | – | – | – | 1 (≈ 2.15 µM) | 10.7 ± 4.62 (≈ 23 µM) | 341 ± 148 (≈ 732 µM) | > 10 |
| O=C(NC(=[Se])Nc1ccccc1F)c1ccccc1 [16c] | > 10 | – | – | – | 1 (≈ 3.11 µM) | 2 (≈ 6.23 µM) | 64 (≈ 199 µM) | > 10 |
| O=C(NC(=[Se])Nc1c(F)c(F)cc(F)c1F)c1ccccc1 [16d] | > 10 | – | – | – | 1 (≈ 2.67 µM) | 2.7 ± 1.15 (≈ 7.2 µM) | > 256 | > 10 |
| NS(=O)(=O)c1ccc(C[Se]c2ccc(NC(=[Se])NC(=O)c3cc(Br)cc(OC(F)(F)F)c3)cc2)cc1 [compound 12, 3-Bromo-N-((4-((4-sulfamoylbenzyl)selanyl)phenyl)carbamoselenoyl)-5-(trifluoromethoxy)benzamide] | 71.6 | – | – | – | 6.7 ± 2.3 (≈ 9.38 µM) | 128 (≈ 179 µM) | 256 (≈ 358 µM) | 1.76 |
